The source of these data is patent US20250320184A1 (SIRONAX LTD., priority 2022, published 2025).

The structures appear in SMILES notation.

The assay deals with T1, SARM1 (50-724) (Homo sapiens, UniProt Q6SZW1).
T1 sequence (Q6SZW1 50-724): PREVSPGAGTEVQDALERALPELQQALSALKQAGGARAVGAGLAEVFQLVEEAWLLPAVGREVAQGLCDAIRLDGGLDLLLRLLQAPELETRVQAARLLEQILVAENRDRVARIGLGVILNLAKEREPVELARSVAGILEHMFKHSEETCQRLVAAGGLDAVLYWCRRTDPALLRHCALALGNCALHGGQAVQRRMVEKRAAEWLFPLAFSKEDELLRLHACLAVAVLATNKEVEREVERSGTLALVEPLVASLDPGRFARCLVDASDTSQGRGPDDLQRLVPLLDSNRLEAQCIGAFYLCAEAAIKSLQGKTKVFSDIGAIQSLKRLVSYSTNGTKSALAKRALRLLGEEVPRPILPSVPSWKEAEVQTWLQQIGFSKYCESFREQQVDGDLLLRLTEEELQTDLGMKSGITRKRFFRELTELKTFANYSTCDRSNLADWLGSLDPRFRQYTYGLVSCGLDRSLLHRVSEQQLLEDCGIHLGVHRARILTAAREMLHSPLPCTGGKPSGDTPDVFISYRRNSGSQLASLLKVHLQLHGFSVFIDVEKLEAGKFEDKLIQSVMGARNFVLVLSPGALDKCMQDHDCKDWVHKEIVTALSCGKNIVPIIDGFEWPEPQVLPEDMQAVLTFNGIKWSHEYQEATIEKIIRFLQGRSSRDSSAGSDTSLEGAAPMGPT
The assay is described as follows: biochemical.

Experimental: An enzymatic assay was performed in a 384-well plate using Dulbecco's phosphate-buffered saline (PBS) as the reaction buffer. […] The reaction was initiated by adding a mixture of 200 μM nicotinamide mononucleotide (NMN) as activator and 100 μM NAD^+ as substrate. After 1 h of incubation at room temperature, the reaction was terminated with 10 times volume of 70% acetonitrile, then centrifuged at 3800 rpm for 10 min.

For orientation: IC50 means the point on the concentration scale where inhibition reaches its midpoint. A low value points to higher potency. `Cc1c(F)cccc1S(=O)(=O)Nc1ccc2cnn(C(=O)OC(C)(C)C)c2c1` [Compound 24, tert-butyl 6-((3-fluoro-2-methylphenyl)sulfonamido)-1H-indazole-1-carboxylate]: the IC50 is more than 1000 nM. As for `COC(=O)Cc1ccc(NS(=O)(=O)c2cccc(Cl)c2Cl)cc1` [Compound 67], the figure is 100 to 500 nM.

The compound `Cc1c(Cl)c(C(C)Nc2ccc3cc[nH]c(=O)c3c2)nn1C` (single isomer, unassigned) [Compound 226A] came in with a half-maximal inhibitory concentration (IC50) of more than 1000 nM. As for `Cc1c(F)cccc1S(=O)(=O)Nc1cccc(N2CCN(C)C2=O)c1` [Compound 28, 3-fluoro-2-methyl-N-(3-(3-methyl-2-oxoimidazolidin-1-yl)phenyl)benzenesulfonamide], the figure is more than 1000 nM; as for `Cc1c(F)cccc1S(=O)(=O)Nc1ccc2scnc2c1` [Compound 32, N-(benzo[d]thiazol-5-yl)-3-fluoro-2-methylbenzenesulfonamide], 100 to 500 nM; as for `Cc1cc(F)cc(C(Cc2ccccc2)Nc2ccc3c(c2)C(=O)NCC3)c1` (racemic) [Example 127, 7-((1-(3-fluoro-5-methylphenyl)-2-phenylethyl)amino)-3,4-dihydroisoquinolin-1(2H)-one], more than 1000 nM. As for `C=CCCC(Nc1ccc2c(c1)C(=O)NCC2)c1cc(C)cc(F)c1` (racemic) [Example 145, 7-((1-(3-fluoro-5-methylphenyl)pent-4-en-1-yl)amino)-3,4-dihydroisoquinolin-1(2H)-one], the figure is 500 to 1000 nM; as for `O=S(=O)(Nc1cccc(-c2ncco2)c1)c1cccc(Cl)c1Cl` [Compound 64, 2,3-dichloro-N-(3-oxazol-2-ylphenyl)benzenesulfonamide], 100 to 500 nM; as for `CC(Nc1ccc2ccc(=O)[nH]c2c1)c1nc(Cl)c(Cl)s1` (racemic) [Compound 231, 7-[1-(4,5-dichlorothiazol-2-yl)ethylamino]-1H-quinolin-2-one], less than 100 nM.

`Cn1ncc2ccc(NS(=O)(=O)c3cccc(Cl)c3Cl)cc21` [Compound 52, 2,3-dichloro-N-(1-methyl-1H-indazol-6-yl)benzenesulfonamide] showed an IC50 of 100 to 500 nM. The compound `O=C1NCCOc2ccc(NS(=O)(=O)c3cccc(Cl)c3Cl)cc21` [Compound 206, 2,3-dichloro-N-(5-oxo-3,4-dihydro-2H-1,4-benzoxazepin-7-yl)benzenesulfonamide] had an IC50 of 100 to 500 nM. `Cc1nn(CC(N)=O)c2cc(NC(C)c3nc(Cl)c(Cl)s3)cc(F)c12` (racemic) [Compound 337, 2-(6-((1-(4,5-dichlorothiazol-2-yl)ethyl)amino)-4-fluoro-3-methyl-1H-indazol-1-yl)acetamide] had an IC50 of less than 100 nM. `CC(Nc1ccc2c(cnn2C)c1)c1cccc(Cl)c1Cl` (racemic) [Example 141, N-(1-(2,3-dichlorophenyl)ethyl)-1-methyl-1H-indazol-5-amine] returned an IC50 of more than 1000 nM. With `Cc1sc(C(C)Nc2ccc3c(C)n(CC(N)=O)nc3c2)nc1Cl` (single isomer, unassigned) [Compound 381], the IC50 was more than 1000 nM. `Cn1ncc2cc(NS(=O)(=O)c3cccc(Cl)c3Cl)ccc21` [Compound 79, 2,3-dichloro-N-(1-methyl-1H-indazol-5-yl)benzenesulfonamide] had an IC50 of 100 to 500 nM. As for `CC(Nc1cc(F)c2ncn(-c3nc[nH]n3)c(=O)c2c1)c1nc(Cl)c(Cl)s1` (racemic) [Example 359, 6-((1-(4,5-dichlorothiazol-2-yl)ethyl)amino)-8-fluoro-3-(1H-1,2,4-triazol-3-yl)quinazolin-4(3H)-one], the figure is less than 100 nM.

In turn, `Cc1nc(C(C)Nc2ccc3cc[nH]c(=O)c3c2)c(Cl)n1C` (racemic) [Compound 214, 7-((1-(5-chloro-1,2-dimethyl-1H-imidazol-4-yl)ethyl)amino)isoquinolin-1(2H)-one] displayed an IC50 of 100 to 500 nM.

Compound `CC[C@H](C(N)=O)c1ccc(N[C@@H](C)c2nc(Cl)c(Cl)s2)cc1` (single isomer, unassigned) [Compound 302] returned a half-inhibitory concentration (IC50) of less than 100 nM.
